Values of other authors, collected in patent US20050267197A1 (priority 2004, published 2005).
Values belong to the molecule of their own block, whether it stands above or below them.

How the values were obtained:
[1] = in vivo
[2] = in vivo; remark: listed apart in the source

patients affected by flushing (redness) of the face and neck [2]: more than three quarters of patients
SMILES: O=C(O)c1cccnc1 [Niacin]
increase of blood levels of HDL cholesterol [1]: up to 35%
reduction of total cholesterol [1]: up to 15%
reduction of triglyceride levels [1]: up to 30%
patients discontinuing treatment because of adverse effects [2]: more than 40%

SMILES: CC(C)c1nc(N(C)S(C)(=O)=O)nc(-c2ccc(F)cc2)c1/C=C/[C@@H](O)C[C@@H](O)CC(=O)O [Crestor®, rosuvastatin]
cases of serious side effects cited (cited by consumer advocacy group, March 2004): 16 cases

SMILES: COCc1c(C(C)C)nc(C(C)C)c(/C=C/[C@@H](O)C[C@@H](O)CC(=O)O)c1-c1ccc(F)cc1 [Baycol®, cervastatin]
deaths linked to the drug (at recommended initial dose (0.4 mg/day) as well as highest dose (0.8 mg/day)): 31 deaths
